One assay has as its target T1, human GPR40 (Homo sapiens, UniProt O14842).
T1 construct: expressed in transfected cells
In words: GPR40 calcium flux assay, HEK293 cells stably expressing human GPR40. It is filed as cell-based. The following applies: transfected HEK293 cells stably expressing human GPR40, Fluo 8 dye, read-out: hGPR40 Ca2+ Assay EC50. As to the method: (§1) Compounds were tested in a calcium flux assay using transfected HEK293 cells stably expressing either human GPR40 or rat GPR40. Human GPR40 expressing cells were cultured in DMEM-High Glucose media supplemented with 10% fetal bovine serum, 1×L-Glutamine, 1×Penicillin/Streptomycin and 500 μg/mL G418. Rat GPR40 expressing cells were cultured in DMEM-High Glucose media supplemented with 10% fetal bovine serum and 1 μg/mL puromycin. Cells were plated into poly-D-lysine coated 384-well plates and cultured overnight in a 37° C. humidified tissue culture incubator under 5% CO2/[…] atmosphere. On the day of the experiment, the culture media was replaced with assay buffer (HBSS, 20 mM HEPES, 0.1% BSA) and the cells incubated at 37° C. for 1 h. Calcium-sensitive fluorescent dye (Fluo 8 No-Wash Calcium Dye, ABD Bioquest) was then added and the cells incubated for another 30 min at 37° C. followed by 15 min at room temperature while protected from the light. The cell plate and a plate of diluted compounds of Formula (I) were loaded into a fluorescent plate reader that added compounds onto the cells while measuring the fluorescence intensity of each well. The plate reader recorded fluorescence intensity at 1 second intervals for 8 min and provided the data for analysis in an Excel format. EC50 values were calculated using Prism (GraphPad) software.

In another assay the target is T2, rat GPR40 (Rattus norvegicus, UniProt Q8K3T4).
T2 construct: expressed in transfected cells
T2 sequence (Q8K3T4 whole entry): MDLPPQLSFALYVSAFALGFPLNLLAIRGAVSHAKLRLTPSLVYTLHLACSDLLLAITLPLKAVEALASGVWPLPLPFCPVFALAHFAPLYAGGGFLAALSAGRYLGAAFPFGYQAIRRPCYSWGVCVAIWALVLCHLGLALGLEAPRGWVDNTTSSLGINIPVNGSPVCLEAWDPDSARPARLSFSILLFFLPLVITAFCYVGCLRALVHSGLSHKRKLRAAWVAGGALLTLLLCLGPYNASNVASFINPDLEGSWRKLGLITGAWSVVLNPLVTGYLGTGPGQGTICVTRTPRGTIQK
In words: GPR40 calcium flux assay, HEK293 cells stably expressing rat GPR40. It is filed as cell-based. The following applies: transfected HEK293 cells stably expressing rat GPR40, Fluo 8 dye, read-out: rGPR40 Ca2+ Assay EC50. As to the method:
as §1
A general note: A change in cytosolic calcium serves as a functional read-out for many receptors and channels.

A further assay relates to Male SD rats. In words: Oral Glucose Tolerance Test, Version A. The conditions noted are these: Assay Version A: fasted male SD rats, dosed 30 min prior to oGTT (glucose 2 g/kg po); blood glucose AUC t=0 to 120 min vs vehicle. The assay is classed as in vivo, rat. The protocol: Male SD rats (200-250 g) were housed 2 per cage in a temperature-controlled room with a 12-hour light/dark cycle. They were allowed ad libitum access to water and fed with normal rodent chow. The night before the oral glucose tolerance test (oGTT), the rats were transferred to clean cages and fasted overnight. On the morning of the oGTT, the rats were weighed and randomized into groups based on fasted blood glucose and body weight. Rats were dosed with vehicle (0.5% methocel) or compounds thirty min prior to the oGTT (glucose, 2 g/kg, po). Blood was collected from the tail vein at 0, 10, 30, 60 and 120 minutes after glucose challenge to measure blood glucose; plasma was used to determine insulin levels. The area under the curve for blood glucose excursion was calculated from t=0 to t=120 minutes. Percent lowering of glucose was calculated from the AUC data with respect to the vehicle-treated group.

T1 sequence (O14842 whole entry): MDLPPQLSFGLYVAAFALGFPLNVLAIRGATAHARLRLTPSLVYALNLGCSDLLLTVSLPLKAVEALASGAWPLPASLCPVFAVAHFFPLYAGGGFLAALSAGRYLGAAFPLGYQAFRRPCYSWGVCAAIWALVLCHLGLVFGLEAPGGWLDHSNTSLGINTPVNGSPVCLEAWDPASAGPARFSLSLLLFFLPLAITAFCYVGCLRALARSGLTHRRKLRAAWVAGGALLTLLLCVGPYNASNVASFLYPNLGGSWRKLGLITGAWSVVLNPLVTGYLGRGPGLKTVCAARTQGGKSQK

Consider `COc1ccc(F)c([C@H]2CC[C@H](COc3cc([C@@H](CC(=O)O)C4CC4)ccn3)CC2)c1` [Cpd 27, (S)-3-Cyclopropyl-3-(2-(((1r,4s)-4-(2-fluoro-5-methoxyphenyl)cyclohexyl)methoxy)pyridin-4-yl)propanoic acid], for which the figures for the concentration for a half-maximal effect (EC50) at human GPR40 and on rat GPR40 were 0.2 nM and 0.9 nM, respectively. In the assay with Male SD rats, the “Percent Lowering of Glucose (AUC compound vs. AUC Vehicle)” value turned out to be 32%.
Consider `COc1cc([C@H]2CC[C@H](COc3cc([C@@H](Cc4nnn[nH]4)C4CC4)ccn3)CC2)c(F)cn1` [Cpd 43, 4-((1S,4r)-4-(((4-((S)-1-Cyclopropyl-2-(1H-tetrazol-5-yl)ethyl)pyridin-2-yl)oxy)methyl)cyclohexyl)-5-fluoro-2-methoxypyridine], for which the EC50 (as a rule, the concentration that produces a half-maximal response) on human GPR40 was found to be 281 nM; at rat GPR40, 464 nM.
On to `CCc1ccc(F)c([C@H]2CC[C@H](COc3cccc([C@H](C4CC4)C(C)(F)C(=O)O)c3)CC2)c1` (stereo partly drawn) [Cpd 68, (3S)-3-Cyclopropyl-3-(3-(((1r,4S)-4-(5-ethyl-2-fluorophenyl)cyclohexyl)methoxy)phenyl)-2-fluoro-2-methylpropanoic acid], for which the EC50 at human GPR40 is 0.27 nM; on rat GPR40, 2.22 nM.
For `COc1ccc(F)c([C@H]2CC[C@H](CNc3cccc([C@@H](CC(=O)O)C4CC4)c3)CC2)c1` [Cpd 40, (S)-3-Cyclopropyl-3-(3-((((1r,4 S)-4-(2-fluoro-5-methoxyphenyl)cyclohexyl)methyl)amino)phenyl)propanoic acid], in that order: 22 nM and 21 nM.
`COc1ccc(F)c([C@H]2CC[C@H](COc3cccc(C(CC(=O)O)C4CC4)n3)CC2)c1` (mixture of isomers) [Cpd 13, 3-Cyclopropyl-3-(6-(((1r,4r)-4-(2-fluoro-5-methoxyphenyl)cyclohexyl)methoxy)pyridin-2-yl)propanoic acid]: the results for the half-maximal effective concentration (EC50) on human GPR40 and at rat GPR40 were 32.7 nM and 143 nM, respectively.
In the case of `CCc1ccc(F)c([C@H]2CC[C@H](COc3cccc([C@H](C4CC4)[C@H](C)C(=O)O)c3)CC2)c1` [Cpd 57, (2S,3R)-3-cyclopropyl-3-(3-(((1r,4R)-4-(5-ethyl-2-fluorophenyl)cyclohexyl)methoxy)phenyl)-2-methylpropanoic acid], the EC50 at human GPR40 is 0.5 nM; at rat GPR40 it was 1.2 nM.
Take `COc1ccc(F)c(C2CCC(COc3cccc(C(CC(=O)O)C4CC4)c3)CC2)c1` (stereo not shown) [Cpd 55, 3-Cyclopropyl-3-(3-(((1 s,4 s)-4-(2-fluoro-5-methoxyphenyl)cyclohexyl)methoxy)phenyl)propanoic acid]: the EC50 at human GPR40 turned out to be 133 nM; at rat GPR40, 346 nM.
On to `COc1cc([C@]2(OC)CC[C@H](COc3cc([C@@H](CC(=O)O)C4CC4)ccn3)CC2)c(F)cn1` [Cpd 45, (S)-3-Cyclopropyl-3-(2-(((1r,4S)-4-(5-fluoro-2-methoxypyridin-4-yl)-4-methoxycyclohexyl)methoxy)pyridin-4-yl)propanoic acid], for which the values for the EC50 at human GPR40 and on rat GPR40 were 258 nM and 855 nM, respectively.
With `COc1ccc(F)c([C@H]2CC[C@H](COc3cccc([C@@H](Cc4nnn[nH]4)C4CC4)c3)CC2)c1` [Cpd 17, 5-((S)-2-Cyclopropyl-2-(3-(((1r,4S)-4-(2-fluoro-5-methoxyphenyl)cyclohexyl)methoxy)phenyl)ethyl)-1H-tetrazole], the EC50 at human GPR40 turned out to be 44.3 nM; at rat GPR40, 388 nM.
For `COc1cc([C@H]2CC[C@@H](COc3cccc([C@@H](CC(=O)O)C4CC4)c3)CC2)c(F)cn1` [Cpd 10, (S)-3-Cyclopropyl-3-(3-(((1s,4R)-4-(5-fluoro-2-methoxypyridin-4-yl)cyclohexyl)methoxy)phenyl)propanoic acid], in that order: 26.9 nM and 76 nM.
For `CCOc1cc([C@H]2CC[C@@H](COc3cc([C@@H](CC(=O)O)C4CC4)ccn3)CC2)c(F)cn1` [Cpd 48, (S)-3-cyclopropyl-3-(2-(((1s,4R)-4-(2-ethoxy-5-fluoropyridin-4-yl)cyclohexyl)methoxy)pyridin-4-yl)propanoic acid], in that order: 212 nM and 676 nM.
For `C[C@](F)(C(=O)O)[C@H](c1cccc(OCC2CCC(c3cc(F)ccc3F)CC2)c1)C1CC1` (stereo partly drawn) [Cpd 75, (2R,3S)-3-Cyclopropyl-3-(3-((4-(2,5-difluorophenyl)cyclohexyl)methoxy)phenyl)-2-fluoro-2-methylpropanoic acid], in that order: 0.44 nM and 8.93 nM.
As to `COc1cc(C2CCC(COc3cccc([C@H](C4CC4)C(C)(F)C(=O)O)c3)CC2)ccn1` (mixture of isomers) [Cpd 69, (3S)-3-Cyclopropyl-2-fluoro-3-(3-((4-(2-methoxypyridin-4-yl)cyclohexyl)methoxy)phenyl)-2-methylpropanoic acid], the EC50 is 1.2 nM on human GPR40 and 1.5 nM on rat GPR40.
For `COc1cc(C2CCC(COc3cccc([C@@H](CC(=O)O)C4CC4)c3)C(C)C2)c(F)cn1` (stereo partly drawn) [Cpd 33, (3S)-3-Cyclopropyl-3-(3-((4-(5-fluoro-2-methoxypyridin-4-yl)-2-methylcyclohexyl)methoxy)phenyl)propanoic acid], in that order: 3.7 nM and 17.3 nM.
For `COc1ccc(F)c([C@]2(F)CC[C@@H](COc3cccc([C@@H](CC(=O)O)C4CC4)c3)CC2)c1` [Cpd 20, (S)-3-Cyclopropyl-3-(3-(((1s,4R)-4-fluoro-4-(2-fluoro-5-methoxyphenyl)cyclohexyl)methoxy)phenyl)propanoic acid], in that order: 9.9 nM and 40.7 nM.
For `COc1ccc(F)c([C@H]2CC[C@H](COc3cccc([C@H](C4CC4)C(C)C(=O)O)c3)CC2)c1` (single isomer, unassigned) [Cpd 51], in that order: 2.2 nM and 4.9 nM.
With `CC(F)(C(=O)O)[C@H](c1cccc(OCC2CCC(c3cc(F)ncc3F)CC2)c1)C1CC1` (mixture of isomers) [Cpd 67, (3S)-3-Cyclopropyl-3-(3-((4-(2,5-difluoropyridin-4-yl)cyclohexyl)methoxy)phenyl)-2-fluoro-2-methylpropanoic acid], the EC50 at human GPR40 stood at 1.7 nM; at rat GPR40 it was 12 nM.
For `COc1ccc(F)c([C@H]2CC[C@H](COc3cccc(C(CC(=O)O)C4CC4)c3)CC2)c1` (mixture of isomers) [Cpd 56, 3-Cyclopropyl-3-(3-(((1r,4r)-4-(2-fluoro-5-methoxyphenyl)cyclohexyl)methoxy)phenyl) propanoic acid], in that order: 3 nM and 14.4 nM.
On to `COc1ccc(F)c([C@H]2CC[C@H](COc3cccc([C@H](CC(=O)O)C4CC4)c3)CC2)c1` [Cpd 38, (R)-3-cyclopropyl-3-(3-(((1r,4R)-4-(2-fluoro-5-methoxyphenyl)cyclohexyl)methoxy)phenyl)propanoic acid], for which the EC50 was 6.2 nM at human GPR40 and 15.6 nM on rat GPR40.
For `COc1ccc(F)c([C@H]2CC[C@H](CCc3cccc([C@H](C4CC4)C(C)(F)C(=O)O)c3)CC2)c1` (stereo partly drawn) [Cpd 73, (3S)-3-Cyclopropyl-2-fluoro-3-(3-(2-((1r,4R)-4-(2-fluoro-5-methoxyphenyl)cyclohexyl)ethyl)phenyl)-2-methylpropanoic acid], in that order: 0.22 nM and 0.46 nM.
For `COc1cc([C@H]2CC[C@H](COc3cccc([C@H](C4CC4)C(C)(F)C(=O)O)c3)CC2)c(F)cn1` (stereo partly shown) [Cpd 61], in that order: 0.25 nM and 0.53 nM.
For `COc1cc([C@H]2CC[C@H](COc3cc([C@H](CC(=O)O)C4CC4)ccn3)CC2)c(F)cn1` [Cpd 24, (R)-3-Cyclopropyl-3-(2-(((1r,4R)-4-(5-fluoro-2-methoxypyridin-4-yl)cyclohexyl)methoxy)pyridin-4-yl)propanoic acid], in that order: 8.4 nM and 20.7 nM.
As for `COc1ccc(F)c([C@H]2CC[C@@H](COc3cc([C@H](CC(=O)O)C4CC4)ccn3)CC2)c1` [Cpd 41, (R)-3-Cyclopropyl-3-(2-(((1s,4S)-4-(2-fluoro-5-methoxyphenyl)cyclohexyl)methoxy)pyridin-4-yl)propanoic acid], the EC50 on human GPR40 amounted to 18 nM; on rat GPR40, 43 nM.
Regarding `COc1ccc(F)c([C@H]2CC[C@@H](COc3cccc([C@H](CC(=O)O)C4CC4)c3)CC2)c1` [Cpd 37, (R)-3-Cyclopropyl-3-(3-(((1s,4S)-4-(2-fluoro-5-methoxyphenyl)cyclohexyl)methoxy)phenyl)propanoic acid], the figures for the concentration for a half-maximal effect (EC50) at human GPR40 and on rat GPR40 were 687 nM and 1320 nM, respectively.

The values above are taken from patent publication US10988433B2, “Cyclohexyl GPR40 agonists for the treatment of type II diabetes” (Janssen Pharmaceutica NV, priority 2016, dated 2021).
